# Measured values taken from publication PMC3723252, “Trypanocidal Activity of Thioamide-Substituted Imidazoquinolinone: Electrochemical Properties and Biological Effects” (Evidence-based Complementary and Alternative Medicine : eCAM, 2013).
# Where two headings read alike, the source gives them in different places.
# Legend:
# [1] = test system: Trypanosoma cruzi epimastigotes (Tulahuen strain); experiment: Growth inhibition of epimastigotes (cell counting, 4 days); format: cell-based; conditions: 96 h, read-out: Epimastigotes IC50
# Procedure: (§1) Trypanosoma cruzi epimastigotes (Tulahuen strain) were grown as previously described. Bloodstream trypomastigotes were obtained from infected CF1 mice by cardiac puncture. Tulahuen strain expressing the β-galactosidase gene was kindly provided by Dr Buckner (University of Washington, USA).
# (§2) Cells growth was assessed by counting the number of cells per mL of culture using a Neubauer chamber and was expressed as cellular density (CD). The percentage of inhibition (%I) was calculated as %I = {1 − [(CD4t − CD0)/(CD4c − CD0)]} × 100, where the different CDs represent the cellular density of CD4t, treated parasites on day 4; CD0, parasites on day 0; and CD4c, untreated parasites (control) on day 4.
# (§3) The results presented are representative of three to four separate experiments, performed in duplicates or triplicates. All data are expressed as means ± standard errors of the mean (SEM). To calculate the IC50 values, the %I or %L values were plotted against the log of drug concentration (μM) and fitted with a straight line determined by a linear regression (Sigma Plot 10 software). The significance of differences was evaluated using Student' t test, taking a P < 0.05 as significant. Flow cytometry data were analyzed employing the WinMDI 2.9 software.
# [2] = test system: bloodstream trypomastigotes; experiment: Trypanocidal effect on bloodstream trypomastigotes (24 h, mouse blood); format: cell-based; conditions: Trypanosoma cruzi, % lysed parasites
# Procedure: as §1
# The trypanocidal effects of C1, C2, C3, D and Bnz were also tested on bloodstream trypomastigotes according to a standard WHO protocol slightly modified. Briefly, mouse blood containing trypomastigotes was treated with different concentrations of each compound (0.30 to 350 μM) or Bnz (0.38 to 38 μM). Plates were incubated for 24 h, and surviving parasites were counted in a Neubauer chamber as previously described. Results were expressed as the percentage of lysed parasites (%L) relative to the number of parasites in the control: %L = [1 − (CDt/(CDc)] × 100, where CDt and CDc represent the cellular density of treated and untreated parasites, respectively.
# as §3
# [3] = Cytotoxicity assay (MTT, 48 h); format: cell-based; conditions: African green monkey, Vero cells
# Procedure: Vero cells were cultivated with different concentrations of each compound (12.5–100.0 μM) or Bnz (3.0–3000 μM). After 48 h of incubation, cells were washed and viability was measured by the MTT assay as previously described. The selectivity index (SI) was calculated as the 50% cytotoxic concentration (CC50) obtained with Vero cells divided by the 50% inhibitory concentration (IC50) obtained with T. cruzi.
# [4] = test system: amastigotes (Tulahuen strain expressing the β-galactosidase gene) in J774 cells; experiment: Amastigote assay in infected J774 cells (β-galactosidase, CPRG); format: cell-based; conditions: Trypanosoma cruzi, 168 h, 7 days
# Procedure: as §1
# For analysis of amastigotes, J774 cells were infected with bloodstream trypomastigotes expressing the β-galactosidase gene at a parasite: cell ratio of 10 : 1. After 24 h, cell cultures were washed and each compound (2 to 100 μM) was added in fresh RPMI medium without phenol red (to avoid interference with absorbance readings at 570 nm). After 7 days, the assay was developed as described. The galactosidase activity was quantified using CPRG as substrate and measuring absorbance at 570 nm in a Microplate Reader (Bio-Rad Laboratories). Since the assayed compounds are coloured, blanks including uninfected cells with different doses of each compound were performed. The percentage of inhibition was calculated as %I = {1 − [(A it − A nit)/(A ic − A nic)]} × 100, where A represents the mean A 570 value recorded for A it, treated infected cells; A nit, treated noninfected cells; A ic, untreated infected cells; and A nic, untreated noninfected cells.
# as §3
# Cyclic voltammetry = format: physicochemical
# Procedure: Cyclic voltammograms for C1, C2, and C3 dissolved in 1% DMSO were carried out using an EQMAT instrument with an EQSOFT Processor, at a sweep rate of 0.2 V/s under a nitrogen atmosphere at room temperature, employing lithium perchlorate as supporting electrolyte. A three-electrode cell was used equipped with a vitreous carbon as working electrode, a gold wire as auxiliary electrode, and a saturated calomel as reference electrode.
# [5] = test system: superoxide dismutase (SOD); experiment: SOD activity in C1-treated epimastigotes; format: cell-based, Trypanosoma cruzi; conditions: control without C1 = 100%
# Procedure: (§4) Epimastigotes of T. cruzi from a 4 days culture were incubated with C1 (7.5–22.5 μM) during 5–36 hours. Cells were harvested, washed and then the following biochemical assays were carried out.
# (§5) (b) Determination of Antioxidant Enzymes Activity. The activities of superoxide dismutase (SOD), ascorbate peroxidase (APx), and trypanothione reductase (TryR) were assayed as previously established.
# (§6) Protein concentration was determined according to the method described by Lowry et al.. These values were used to express the specific enzymatic activities as activity per mg of protein.
# [6] = test system: ascorbate peroxidase (APx); experiment: APx activity in C1-treated epimastigotes; format: cell-based, Trypanosoma cruzi; conditions: control without C1 = 100%
# Procedure: as §4, §5, §6
# [7] = test system: trypanothione reductase (TryR); experiment: TryR activity in C1-treated epimastigotes; format: cell-based, Trypanosoma cruzi; conditions: control without C1 = 100%
# Procedure: as §4, §5, §6
# [8] = test system: Epimastigotes of T. cruzi; experiment: Intracellular oxidative activity (H2DCFDA flow cytometry); format: cell-based, Trypanosoma cruzi; conditions: 7.5, 15 and 22.5 μM; 5, 12 and 24 h; data not shown
# Procedure: as §4
# (a) Assay of Intracellular Oxidative Activity. The intracellular oxidative activity was assessed by flow cytometry using the oxidant-sensitive fluorescent probe H2DCFDA. As a positive control cells were treated with 0.1 mM H2O2. Stained cells were then analyzed by a FACSCalibur flow cytometer (Becton Dickinson) with an excitation wavelength of 480 nm and an emission wavelength of 530 nm. Flow cytometry results were expressed by the ratio Gmt/Gmc, where Gmt and Gmc correspond to the geometric mean of histograms obtained for treated and untreated cells, respectively.
# [9] = test system: Epimastigotes of T. cruzi; experiment: Determination of total thiol groups (DTNB); format: cell-based, Trypanosoma cruzi
# Procedure: as §4
# (c) Determination of Total Thiol Groups. The thiol groups content was determined employing the chromogenic compound 5,5′-dithiobis-2-nitrobenzoate (DTNB), as already described.
# [10] = test system: Epimastigotes of T. cruzi; experiment: Parasite death by Annexin V-FITC/PI staining (flow cytometry); format: cell-based, Trypanosoma cruzi; conditions: for early apoptotic cells / late apoptotic cells: 22.5 μM; for early apoptotic cells: 0.8% at 0 h; for late apoptotic cells: 2.8% at 0 h; for viability at 22.5 µM: Trypanosoma cruzi, 95.9% for control (0 h), read-out: viable nonapoptotic cells
# Procedure: as §4
# Cell viability and phosphatidylserine (PS) exposure on the parasite surface were assessed by propidium iodide (PI) and Annexin V-fluorescein isothiocyanate (FITC) staining, according to the manufacturer's instructions (Invitrogen). Epimastigotes exposed to 30% fresh human serum for 2 h at 28°C were used as positive control. Parasites were analysed by flow cytometry acquiring 20,000 events per sample.
# [11] = test system: Epimastigotes of T. cruzi; experiment: Mitochondrial membrane potential (DiOC6 staining); format: cell-based, Trypanosoma cruzi; conditions: 22.5 μM, 31% for the control (0 h)
# Procedure: as §4
# (§7) Mitochondrial membrane potential was assessed using two well-established assays: 3,3′-dihexyloxacarbocyanine iodide (DiOC6) staining and the cytochrome c release.
# For the DiOC6 assay, epimastigotes (10^6) were permeabilized for 20 min at room temperature with 0.01% saponin, washed, and incubated with 30 nM DiOC6 for 30 min at 37°C. The positive control was done with 250 nM trifluoromethoxy carbonyl cyanide phenyl hydrazone (FCCP) as depolarizing agent. Stained cells were analyzed by flow cytometry with an excitation wavelength of 484 nm and an emission wavelength of 511 nm.
# [12] = test system: Epimastigotes of T. cruzi; experiment: Cytochrome c release (Western blot, densitometry); format: cell-based, Trypanosoma cruzi; conditions: 22.5 μM, at 36 h, relative to level detected after 24 h
# Procedure: as §4, §7
# To evaluate the cytochrome c release, parasites (3 × 10^8) were resuspended in PBS containing 200 μg/mL digitonin, incubated on ice for 15 min and then centrifuged at 9 000 ×g for 10 min at 4°C. Both, mitochondrial-rich fraction (pellet, resuspended in 50 μL of PBS) and cytosolic fraction (150 μL) were subjected to Western-blot analysis for cytochrome c. Protein extracts (10 μL and 30 μL of mitochondrial and cytosolic fractions, resp.) were resolved by 14% SDS/PAGE, transferred to nitrocellulose membranes, blocked with 3% skimmed milk in PBS, and then incubated with specific antibodies, according to the protocol of Piacenza et al.. Relative intensities of bands were quantified by densitometry using Scion Image software (Scion). Results were expressed in arbitrary units.
# T. cruzi = experiment: Effect of DTT, ascorbic acid and GSH on anti-T. cruzi activity of C1; format: cell-based, Trypanosoma cruzi
# Procedure: as §2
# [13] = 1% DMSO, sweep rate 0.2 V/s, saturated calomel reference electrode
smiles,measurement,setting,value
"O=C(Cn1ccnc1[N+](=O)[O-])NCc1ccccc1 [Bnz, Benznidazole, reference compound]",IC50,[1],5.49 ± 0.89 µM
same,IC50,[2],30.3 ± 2.85 µM
same,CC50 at 48 h,[3],82.8 ± 2.75 µM
"O=c1c2ccccc2c(C(=S)Nc2ccccc2)c2n1CCN2 [Compound C1, N-phenyl-5-oxo-1,2,3,5-tetrahydroimidazo[1,2-b]isoquinolin-10-carbothioamide]",IC50,[1],1.49 ± 0.28 µM
same,IC50,[2],34.9 ± 1.2 µM
same,IC50,[4],1.74 ± 0.3 µM
same,anodic peak (irreversible oxidation),Cyclic voltammetry; [13],0.78 V
same,cathodic peak (irreversible reduction),Cyclic voltammetry; [13],−1.04 V
same,SOD activity (%),"[5]; 5 h, 7.5 µM",95.85 ± 2.50%
same,SOD activity (%),"[5]; 5 h, 15.0 µM",99.31 ± 4.30%
same,SOD activity (%),"[5]; 5 h, 22.5 µM",90.09 ± 2.30%
same,SOD activity (%),"[5]; 12 h, 7.5 µM",99.75 ± 2.90%
same,SOD activity (%),"[5]; 12 h, 15.0 µM",103.92 ± 4.30%
same,SOD activity (%),"[5]; 12 h, 22.5 µM",88.48 ± 3.20 %
same,SOD activity (%),"[5]; 24 h, 7.5 µM",98.74 ± 7.30%
same,SOD activity (%),"[5]; 24 h, 15.0 µM",89.78 ± 3.50 %
same,SOD activity (%),"[5]; 24 h, 22.5 µM",78.27 ± 4.20 %
same,APx activity (%),"[6]; 5 h, 7.5 µM",111.26 ± 7.60%
same,APx activity (%),"[6]; 5 h, 15.0 µM",98.31 ± 2.10%
same,APx activity (%),"[6]; 5 h, 22.5 µM",105.20 ± 6.20%
same,APx activity (%),"[6]; 12 h, 7.5 µM",98.30 ± 2.30%
same,APx activity (%),"[6]; 12 h, 15.0 µM",95.91 ± 4.10%
same,APx activity (%),"[6]; 12 h, 22.5 µM",93.48 ± 6.20%
same,APx activity (%),"[6]; 24 h, 7.5 µM",108.35 ± 9.20%
same,APx activity (%),"[6]; 24 h, 15.0 µM",105.30 ± 6.56%
same,APx activity (%),"[6]; 24 h, 22.5 µM",96.25 ± 5.80%
same,TryR activity (%),"[7]; 5 h, 7.5 µM",152.23 ± 6.38 %
same,TryR activity (%),"[7]; 5 h, 15.0 µM",177.17 ± 15.56 %
same,TryR activity (%),"[7]; 5 h, 22.5 µM",143.89 ± 4.80 %
same,TryR activity (%),"[7]; 12 h, 7.5 µM",188.60 ± 12.30 %
same,TryR activity (%),"[7]; 12 h, 15.0 µM",251.62 ± 15.56 %
same,TryR activity (%),"[7]; 12 h, 22.5 µM",190.55 ± 14.29 %
same,TryR activity (%),"[7]; 24 h, 7.5 µM",165.23 ± 9.80 %
same,TryR activity (%),"[7]; 24 h, 15.0 µM",198.27 ± 9.30 %
same,TryR activity (%),"[7]; 24 h, 22.5 µM",163.56 ± 7.60 %
same,ratio Gmt/Gmc (H2DCFDA fluorescence),[8],around 1
same,decrease of low molecular mass thiols,"[9]; 22.5 μM, 24 h of incubation",not more than 20%
same,level of low molecular mass thiols,"[9]; all C1 concentrations tested, 5 and 12 h, data not shown",remain constant
same,early apoptotic cells,[10]; 24 h,8.7%
same,late apoptotic cells,[10]; 24 h,4.9%
same,early apoptotic cells,[10]; 36 h,51.0%
same,late apoptotic cells,[10]; 36 h,7.7%
same,viability at 22.5 µM,[10]; 24 h,84.8%
same,viability at 22.5 µM,[10]; 36 h,40.4%
same,Depolarized cells,[11]; 24 h,77%
same,Depolarized cells,[11]; 36 h,84%
same,increase of cytochrome c in the parasite cytosol,[12],2.5–3 times
same,effect of DTT and ascorbic acid on the inhibitory action of the drug,"T. cruzi; C1 1 up to 2.5 μM, at the antioxidant concentrations tested",considerably enhanced
same,effect of GSH on the inhibitory effect of C1,T. cruzi; GSH 5 μM,completely abrogated
"O=c1c2ccccc2c(C(=S)Nc2ccc(Cl)cc2)c2n1CCN2 [Compound C2, N-(4-chlorophenyl)-5-oxo-1,2,3,5-tetrahydroimidazo[1,2-b]isoquinolin-10-carbothioamide]",IC50,[1],5.57 ± 0.53 µM
same,IC50,[2],306 ± 15 µM
same,IC50,[4],3.63 ± 0.51 µM
Cc1ccc(NC(=S)c2c3n(c(=O)c4ccccc24)CCN3)cc1 [Compound C3],IC50,[1],1.5 ± 0.3 µM
same,IC50,[2],246 ± 18 µM
same,IC50,[4],1.5 ± 0.32 µM
"O=C(Nc1ccccc1)c1c2n(c(=O)c3ccccc13)CCN2 [D, 5-oxo-N-phenyl-1,2,3,5-tetrahydroimidazo[1,2-b]isoquinolin-10-carboxamide]",IC50,[1],> 25 µM
same,IC50,[2],> 300 µM
same,IC50,[4],11.4 ± 1.21 µM
"O=c1c2ccccc2cc2n1CCN2 [heterocycle precursor, 2,3-dihydroimidazo[1,2-b]isoquinolin-5(1-H)-one]",IC50,[1],> 25 µM
same,cathodic and anodic peaks,Cyclic voltammetry; subjected to the same potentials as C1,Neither the cathodic nor the anodic peaks were measurable
